Assay results taken from publication PMC11613490, “Cyclophostin and Cyclipostins analogues counteract macrolide-induced resistance mediated by erm(41) in Mycobacterium abscessus” (Journal of Biomedical Science, 2024).
In brackets after ≈: the same amount, converted by molar mass. Read-outs that look alike come from different tables or passages of the source.

Legend:
Assay in all cases: microbe, parasite or virus in culture
[1] = test system: M. abscessus S reference strain (Control, untreated); design: species or system Mycobacterium abscessus; broth microdilution in 7H9-OADC, OD600 growth, MIC defined as 90% growth inhibition; details: Mycobacteroides abscessus, single drug, read-out: MIC (0 µg/mL CyC, alone)
[2] = test system: M. abscessus S (control, untreated); design: species or system Mycobacterium abscessus S; broth microdilution / checkerboard MIC in 7H9-S OADC, OD600, more than 90% growth inhibition; details: Mycobacteroides abscessus, read-out: MIC, single drug
[3] = test system: M. abscessus S reference strain (Control, untreated); details: Mycobacteroides abscessus, read-out: MIC (0 µg/mL CyC, alone)
Method: Synergistic activities were tested in 96-well microplates by the checkerboard assay in Middlebrook 7H9-S^OADC broth and using microdilution method [47]. MIC of the antibiotics were determined in 96 well flat-bottom Nunclon Delta Surface microplates with lid (Thermo-Fisher Scientific, ref. 167008) using optical density to assess growth. Log-phase bacteria were diluted to a cell density of 5 × 10^6 cells/mL in 7H9-S^OADC medium. Then, 100 µL of this bacterial suspension (5 × 10^5 cells final per well) was added to each well containing 100 µL of the 7H9-S^OADC medium, serial two-fold dilutions of the selected antibiotics or controls to a final volume of 200 µL. In addition, wells containing 200 µL of 7H9-S^OADC medium only were used as sterility/background controls, whereas wells containing 100 µg/mL kanamycin (Euromedex) was used as positive control for growth inhibition. Plates were incubated at 37 °C for 4 to 5 days. The optical density (OD) at 600 nm was quantified using a Tecan Spark 10 M™ multimode microplate reader (Tecan Group Ltd., France). Relative growth units were defined as: RGU% = (test well OD600nm/mean OD600nm of growth control wells) ×100. For each condition, three biological replicates were performed. The MIC of each drug was defined as the lowest drug concentration that inhibited more than 90% of the bacterial growth.

CCCCCCCCCCCOP1(=O)OCCC(C(=O)OC)=C(C)O1 (stereo not shown) [CyC31]
MIC [1]: 20 µg/mL (≈ 53.1 µM)

CC[C@H]1OC(=O)[C@H](C)[C@@H](O[C@H]2C[C@@](C)(OC)[C@@H](O)[C@H](C)O2)[C@H](C)[C@@H](O[C@@H]2O[C@H](C)C[C@H](N(C)C)[C@H]2O)[C@](C)(OC)C[C@@H](C)C(=O)[C@H](C)[C@@H](O)[C@]1(C)O [CLR, clarithromycin]
MIC [2]: 0.6 µg/mL

CCCCCCCCCCCCCCCCOP1(=O)OCCC(C(=O)OC)=C(C)O1 (stereo not shown) [CyC17]
MIC [3]: 3.2 µg/mL (≈ 7.17 µM)

CC[C@H]1OC(=O)[C@H](C)[C@@H](O[C@H]2C[C@@](C)(OC)[C@@H](O)[C@H](C)O2)[C@H](C)[C@@H](O[C@@H]2O[C@H](C)C[C@H](N(C)C)[C@H]2O)[C@](C)(O)C[C@@H](C)CN(C)[C@H](C)[C@@H](O)[C@]1(C)O [AZM, azithromycin]
MIC [2]: 6 µg/mL
